Reference: patent US8735620B2, “Processes for preparing (E)-styrylbenzylsulfone compounds and uses thereof for treating proliferative disorders” (priority 2008, dated 2014)

What follows are compounds tested on H157 (human lung tumor cell line) (assay: Cytotoxicity assay (trypan blue exclusion, 96 h), H157). Settings: H157, 96 h treatment; read-out: H157 IC50.
Assay type: cell-based
Description: (§1) Tissue Culture and Reagents: Paclitaxel was purchased from Sigma. Cell lines were purchased from ATCC. Cell lines were routinely grown in DMEM or RPM1 (CellGro) supplemented with 10% fetal bovine serum (Atlas) and 1 unit/mL penicillin-streptomycin (Gibco).

Structure (SMILES)	IC50 [µM]
COc1ccc(CS(=O)(=O)/C=C/c2c(C)cc(C)cc2C)cc1 [6w, (E)-2,4,6-Trimethylstyryl-4-Methoxybenzyl sulfone]	> 20
COc1ccc(CS(=O)(=O)/C=C/c2ccc(Cl)cc2)cc1 [6c, (E)-4-Chlorostyryl-4-Methoxybenzyl sulfone]	3.5
COc1ccc(CS(=O)(=O)/C=C/c2cc(OC)c(OC)cc2OC)cc1 [6q, (E)-2,4,5-Trimethoxystyryl-4-Methoxybenzyl sulfone]	> 20
COc1ccc(CS(=O)(=O)/C=C/c2cc(OC)cc(OC)c2)cc1 [6p, (E)-3,5-Dimethoxystyryl-4-Methoxybenzyl sulfone]	> 20
COc1cc(OC)c(/C=C/S(=O)(=O)Cc2ccc(C(=O)O)cc2)c(OC)c1 [6ah, (E)-2,4,6-trimethoxystyryl-4-Carboxybenzyl sulfone]	17.5
COc1ccc(CS(=O)(=O)/C=C/c2c(OC)cc(O)cc2OC)cc1 [6u, (E)-2,6-Dimethoxy-4-hydroxystyryl-4-Methoxybenzyl sulfone]	> 20
COc1ccc(CS(=O)(=O)/C=C/c2cc(OC)ccc2OC)cc1 [6o, (E)-2,5-Dimethoxystyryl-4-Methoxybenzyl sulfone]	> 20
COc1cc(OC)c(/C=C/S(=O)(=O)Cc2ccc(OC(F)(F)F)cc2)c(OC)c1 [6x, (E)-2,4,6-Trimethoxystyryl-4-Trifluoromethoxybenzyl sulfone]	6
COc1ccc(CS(=O)(=O)/C=C/c2ccc(F)cc2Cl)cc1 [6g, (E)-2-Chloro-4-fluorostyryl-4-Methoxybenzyl sulfone]	2.5
COc1ccc(CS(=O)(=O)/C=C/c2ccc([N+](=O)[O-])cc2)cc1 [6d, (E)-4-Nitrostyryl-4-Methoxybenzyl sulfone]	7.5
COc1ccc(CS(=O)(=O)/C=C/c2cc(OC)c(OC)c(OC)c2)cc1O [6y, (E)-3,4,5-Trimethoxystyryl-3-Hydroxy-4-Methoxybenzyl Sulfone]	10
COc1ccc(CS(=O)(=O)/C=C/c2ccc(OC)c(OC)c2)cc1 [6j, (E)-3,4-Dimethoxystyryl-4-Methoxybenzyl sulfone]	> 20
COc1ccc(CS(=O)(=O)/C=C/c2ccc(F)cc2)cc1 [6b, (E)-4-Fluorostyryl-4-Methoxybenzyl sulfone]	2.5
COc1ccc(CS(=O)(=O)/C=C/c2cc(C)cc(C)c2)cc1 [6k, (E)-3,5-Dimethylstyryl-4-Methoxybenzyl sulfone]	> 20
COc1ccc(CS(=O)(=O)/C=C/c2cc(OC)c(OC)c(OC)c2)cc1 [6t, (E)-3,4,5-Trimethoxystyryl-4-Methoxybenzyl sulfone]	> 20
COc1ccc(/C=C/S(=O)(=O)Cc2ccc(OC)cc2)cc1 [6a, (E)-4-Methoxystyryl-4-Methoxybenzyl sulfone]	> 20

What follows are compounds tested on DU145 (human prostate tumor cell line) (assay: Cytotoxicity assay (trypan blue exclusion, 96 h), DU145). Settings: DU145, 96 h treatment; read-out: DU145 IC50.
Assay type: cell-based

Structure (SMILES)	IC50 [µM]
COc1ccc(CS(=O)(=O)/C=C/c2c(C)cc(C)cc2C)cc1 [6w, (E)-2,4,6-Trimethylstyryl-4-Methoxybenzyl sulfone]	> 20
COc1ccc(CS(=O)(=O)/C=C/c2ccc(Cl)cc2)cc1 [6c, (E)-4-Chlorostyryl-4-Methoxybenzyl sulfone]	2.5
COc1ccc(CS(=O)(=O)/C=C/c2cc(OC)c(OC)cc2OC)cc1 [6q, (E)-2,4,5-Trimethoxystyryl-4-Methoxybenzyl sulfone]	> 20
COc1ccc(CS(=O)(=O)/C=C/c2cc(OC)cc(OC)c2)cc1 [6p, (E)-3,5-Dimethoxystyryl-4-Methoxybenzyl sulfone]	> 20
COc1cc(OC)c(/C=C/S(=O)(=O)Cc2ccc(C(=O)O)cc2)c(OC)c1 [6ah, (E)-2,4,6-trimethoxystyryl-4-Carboxybenzyl sulfone]	10
COc1ccc(CS(=O)(=O)/C=C/c2c(OC)cc(O)cc2OC)cc1 [6u, (E)-2,6-Dimethoxy-4-hydroxystyryl-4-Methoxybenzyl sulfone]	> 20
COc1ccc(CS(=O)(=O)/C=C/c2cc(OC)ccc2OC)cc1 [6o, (E)-2,5-Dimethoxystyryl-4-Methoxybenzyl sulfone]	> 20
COc1cc(OC)c(/C=C/S(=O)(=O)Cc2ccc(OC(F)(F)F)cc2)c(OC)c1 [6x, (E)-2,4,6-Trimethoxystyryl-4-Trifluoromethoxybenzyl sulfone]	4
COc1ccc(CS(=O)(=O)/C=C/c2ccc(F)cc2Cl)cc1 [6g, (E)-2-Chloro-4-fluorostyryl-4-Methoxybenzyl sulfone]	2
COc1ccc(CS(=O)(=O)/C=C/c2ccc([N+](=O)[O-])cc2)cc1 [6d, (E)-4-Nitrostyryl-4-Methoxybenzyl sulfone]	7.5
COc1ccc(CS(=O)(=O)/C=C/c2cc(OC)c(OC)c(OC)c2)cc1O [6y, (E)-3,4,5-Trimethoxystyryl-3-Hydroxy-4-Methoxybenzyl Sulfone]	5
COc1ccc(CS(=O)(=O)/C=C/c2ccc(OC)c(OC)c2)cc1 [6j, (E)-3,4-Dimethoxystyryl-4-Methoxybenzyl sulfone]	> 20
COc1ccc(CS(=O)(=O)/C=C/c2ccc(F)cc2)cc1 [6b, (E)-4-Fluorostyryl-4-Methoxybenzyl sulfone]	1.25
COc1ccc(CS(=O)(=O)/C=C/c2cc(C)cc(C)c2)cc1 [6k, (E)-3,5-Dimethylstyryl-4-Methoxybenzyl sulfone]	> 20
COc1ccc(CS(=O)(=O)/C=C/c2cc(OC)c(OC)c(OC)c2)cc1 [6t, (E)-3,4,5-Trimethoxystyryl-4-Methoxybenzyl sulfone]	> 20
COc1ccc(/C=C/S(=O)(=O)Cc2ccc(OC)cc2)cc1 [6a, (E)-4-Methoxystyryl-4-Methoxybenzyl sulfone]	> 20

These compounds were tested on BT20 (human breast tumor cell line) (assay: Cytotoxicity assay (trypan blue exclusion, 96 h), BT20). Settings: BT20, 96 h treatment.
Assay type: cell-based
Description: as §1

Structure (SMILES)	IC50 [µM]
COc1ccc(CS(=O)(=O)/C=C/c2c(C)cc(C)cc2C)cc1 [6w, (E)-2,4,6-Trimethylstyryl-4-Methoxybenzyl sulfone]	> 20
COc1ccc(CS(=O)(=O)/C=C/c2ccc(Cl)cc2)cc1 [6c, (E)-4-Chlorostyryl-4-Methoxybenzyl sulfone]	2
COc1ccc(CS(=O)(=O)/C=C/c2cc(OC)c(OC)cc2OC)cc1 [6q, (E)-2,4,5-Trimethoxystyryl-4-Methoxybenzyl sulfone]	> 20
COc1ccc(CS(=O)(=O)/C=C/c2cc(OC)cc(OC)c2)cc1 [6p, (E)-3,5-Dimethoxystyryl-4-Methoxybenzyl sulfone]	> 20
COc1ccc(CS(=O)(=O)/C=C/c2c(OC)cc(O)cc2OC)cc1 [6u, (E)-2,6-Dimethoxy-4-hydroxystyryl-4-Methoxybenzyl sulfone]	> 20
COc1ccc(CS(=O)(=O)/C=C/c2cc(OC)ccc2OC)cc1 [6o, (E)-2,5-Dimethoxystyryl-4-Methoxybenzyl sulfone]	> 20
COc1cc(OC)c(/C=C/S(=O)(=O)Cc2ccc(OC(F)(F)F)cc2)c(OC)c1 [6x, (E)-2,4,6-Trimethoxystyryl-4-Trifluoromethoxybenzyl sulfone]	3
COc1ccc(CS(=O)(=O)/C=C/c2ccc(F)cc2Cl)cc1 [6g, (E)-2-Chloro-4-fluorostyryl-4-Methoxybenzyl sulfone]	2.5
COc1ccc(CS(=O)(=O)/C=C/c2ccc([N+](=O)[O-])cc2)cc1 [6d, (E)-4-Nitrostyryl-4-Methoxybenzyl sulfone]	5
COc1ccc(CS(=O)(=O)/C=C/c2cc(OC)c(OC)c(OC)c2)cc1O [6y, (E)-3,4,5-Trimethoxystyryl-3-Hydroxy-4-Methoxybenzyl Sulfone]	7.5
COc1ccc(CS(=O)(=O)/C=C/c2ccc(OC)c(OC)c2)cc1 [6j, (E)-3,4-Dimethoxystyryl-4-Methoxybenzyl sulfone]	> 20
COc1ccc(CS(=O)(=O)/C=C/c2ccc(F)cc2)cc1 [6b, (E)-4-Fluorostyryl-4-Methoxybenzyl sulfone]	1.5
COc1ccc(CS(=O)(=O)/C=C/c2cc(C)cc(C)c2)cc1 [6k, (E)-3,5-Dimethylstyryl-4-Methoxybenzyl sulfone]	> 20
COc1ccc(CS(=O)(=O)/C=C/c2cc(OC)c(OC)c(OC)c2)cc1 [6t, (E)-3,4,5-Trimethoxystyryl-4-Methoxybenzyl sulfone]	> 20
COc1ccc(/C=C/S(=O)(=O)Cc2ccc(OC)cc2)cc1 [6a, (E)-4-Methoxystyryl-4-Methoxybenzyl sulfone]	> 20

These compounds were tested on DLD1 (human colorectal tumor cell line) (assay: Cytotoxicity assay (trypan blue exclusion, 96 h), DLD1). Settings: DLD1, 96 h treatment; read-out: DLD1 IC50.
Assay type: cell-based
Description: as §1

Structure (SMILES)	IC50 [µM]
COc1ccc(CS(=O)(=O)/C=C/c2c(C)cc(C)cc2C)cc1 [6w, (E)-2,4,6-Trimethylstyryl-4-Methoxybenzyl sulfone]	> 20
COc1ccc(CS(=O)(=O)/C=C/c2ccc(Cl)cc2)cc1 [6c, (E)-4-Chlorostyryl-4-Methoxybenzyl sulfone]	3
COc1ccc(CS(=O)(=O)/C=C/c2cc(OC)c(OC)cc2OC)cc1 [6q, (E)-2,4,5-Trimethoxystyryl-4-Methoxybenzyl sulfone]	> 20
COc1ccc(CS(=O)(=O)/C=C/c2cc(OC)cc(OC)c2)cc1 [6p, (E)-3,5-Dimethoxystyryl-4-Methoxybenzyl sulfone]	> 20
COc1ccc(CS(=O)(=O)/C=C/c2c(OC)cc(O)cc2OC)cc1 [6u, (E)-2,6-Dimethoxy-4-hydroxystyryl-4-Methoxybenzyl sulfone]	> 20
COc1ccc(CS(=O)(=O)/C=C/c2cc(OC)ccc2OC)cc1 [6o, (E)-2,5-Dimethoxystyryl-4-Methoxybenzyl sulfone]	> 20
COc1cc(OC)c(/C=C/S(=O)(=O)Cc2ccc(OC(F)(F)F)cc2)c(OC)c1 [6x, (E)-2,4,6-Trimethoxystyryl-4-Trifluoromethoxybenzyl sulfone]	4
COc1ccc(CS(=O)(=O)/C=C/c2ccc(F)cc2Cl)cc1 [6g, (E)-2-Chloro-4-fluorostyryl-4-Methoxybenzyl sulfone]	4
COc1ccc(CS(=O)(=O)/C=C/c2ccc([N+](=O)[O-])cc2)cc1 [6d, (E)-4-Nitrostyryl-4-Methoxybenzyl sulfone]	5
COc1ccc(CS(=O)(=O)/C=C/c2cc(OC)c(OC)c(OC)c2)cc1O [6y, (E)-3,4,5-Trimethoxystyryl-3-Hydroxy-4-Methoxybenzyl Sulfone]	10
COc1ccc(CS(=O)(=O)/C=C/c2ccc(OC)c(OC)c2)cc1 [6j, (E)-3,4-Dimethoxystyryl-4-Methoxybenzyl sulfone]	> 20
COc1ccc(CS(=O)(=O)/C=C/c2ccc(F)cc2)cc1 [6b, (E)-4-Fluorostyryl-4-Methoxybenzyl sulfone]	2
COc1ccc(CS(=O)(=O)/C=C/c2cc(C)cc(C)c2)cc1 [6k, (E)-3,5-Dimethylstyryl-4-Methoxybenzyl sulfone]	> 20
COc1ccc(CS(=O)(=O)/C=C/c2cc(OC)c(OC)c(OC)c2)cc1 [6t, (E)-3,4,5-Trimethoxystyryl-4-Methoxybenzyl sulfone]	> 20
COc1ccc(/C=C/S(=O)(=O)Cc2ccc(OC)cc2)cc1 [6a, (E)-4-Methoxystyryl-4-Methoxybenzyl sulfone]	> 20

What follows are compounds tested on BT20, DU145, H157 and DLD1 cell lines (assay: In vitro cytotoxicity, four human tumor cell lines (SAR discussion)). Settings: not given.
Assay type: cell-based
Procedure: A number of tumor cell lines were tested using a dose response end point assay system. The cells were grown in either DMEM or RPMI supplemented with 10% fetal bovine serum and 1 unit/mL Penicillin-Streptomycin solution. The tumor cells were plated into 6 well dishes at a cell density of 1.0×10^5 cells/mL/well and compounds were added 24 h later at various concentrations. Cell counts were determined from duplicate wells after 96 h of treatment. The total number of viable cells was determined by trypan blue exclusion.
Following the synthesis of this group of compounds, their in vitro cytotoxicity was assessed using four different human tumor cell lines derived from human breast (BT20), prostate (DU145), lung (H157) and colorectal (DLD1) cancers. […] In a majority of the compounds described here, a methoxy group was kept constant at the 4th position on the aromatic ring of the benzyl moiety.

Structure (SMILES)	cytotoxic activity, SAR statement
COc1ccc(CS(=O)(=O)/C=C/c2c(C)cc(C)cc2C)cc1 [6w, (E)-2,4,6-Trimethylstyryl-4-Methoxybenzyl sulfone]	inactive
COc1ccc(CS(=O)(=O)/C=C/c2ccc(Cl)cc2)cc1 [6c, (E)-4-Chlorostyryl-4-Methoxybenzyl sulfone]	gradually decreased the activity
COc1ccc(CS(=O)(=O)/C=C/c2ccc(F)cc2Cl)cc1 [6g, (E)-2-Chloro-4-fluorostyryl-4-Methoxybenzyl sulfone]	retained cytotoxic activity
COc1ccc(CS(=O)(=O)/C=C/c2ccc(F)cc2)cc1 [6b, (E)-4-Fluorostyryl-4-Methoxybenzyl sulfone]	moderate cytotoxic activity
COc1ccc(CS(=O)(=O)/C=C/c2cc(C)cc(C)c2)cc1 [6k, (E)-3,5-Dimethylstyryl-4-Methoxybenzyl sulfone]	low level of cytotoxicity
COc1ccc(/C=C/S(=O)(=O)Cc2ccc(OC)cc2)cc1 [6a, (E)-4-Methoxystyryl-4-Methoxybenzyl sulfone]	gradually decreased the activity

Same assay, conditions: at the highest concentration (20 μM) tested

Structure (SMILES)	activity in cell-killing assays
COc1ccc(CS(=O)(=O)/C=C/c2cc(OC)c(OC)cc2OC)cc1 [6q, (E)-2,4,5-Trimethoxystyryl-4-Methoxybenzyl sulfone]	totally inactive
COc1ccc(CS(=O)(=O)/C=C/c2cc(OC)c(OC)c(OC)c2)cc1 [6t, (E)-3,4,5-Trimethoxystyryl-4-Methoxybenzyl sulfone]	totally inactive

Same assay, conditions: four human tumor cell lines

Structure (SMILES)	cytotoxic activity, SAR statement
COc1cc(OC)c(/C=C/S(=O)(=O)Cc2ccc(C(=O)O)cc2)c(OC)c1 [6ah, (E)-2,4,6-trimethoxystyryl-4-Carboxybenzyl sulfone]	substantially lost activity
COc1ccc(CS(=O)(=O)/C=C/c2c(OC)cc(O)cc2OC)cc1 [6u, (E)-2,6-Dimethoxy-4-hydroxystyryl-4-Methoxybenzyl sulfone]	either a reduced level or total loss of activity
COc1ccc(CS(=O)(=O)/C=C/c2ccc([N+](=O)[O-])cc2)cc1 [6d, (E)-4-Nitrostyryl-4-Methoxybenzyl sulfone]	gradually decreased the activity
